Assay results published in PubChem BioAssay AID248 (DTP/NCI, 2004).
Where “and” joins values, the source holds several entries; their conditions need not be identical. Equal values may be shown once. Inconclusive results and toxic doses are left out. Cut-off read from the data, not from the text of the source: active = T/C of 150% or more; inactive = T/C below 125%.

System: L1210 leukemia ip in BDF1 mice, survival T/C
Assay: NCI In Vivo Anticancer Drug Screen. Data for tumor model L1210 Leukemia (intraperitoneal) in B6D2F1 (BDF1) mice
Details: endpoint: mean survival time, higher = longer survival
Procedure, shortened: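 Survival endpoint. Drug-treated group vs vehicle group, expressed as T divided by C. Tumor passaged by transplantation.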

[1] = dose: 100.0 mg/kg/injection, schedule: Q04DX002 (ip), vehicle: Klucel (hydroxypropylcellulose) (HPC)
[2] = dose: 200.0 mg/kg/injection, schedule: Q04DX002 (ip), vehicle: Klucel (hydroxypropylcellulose) (HPC)
[3] = dose: 100.0 mg/kg/injection, schedule: Q01DX001 (ip), vehicle: saline
[4] = dose: 200.0 mg/kg/injection, schedule: Q01DX001 (ip), vehicle: saline
[5] = dose: 400.0 mg/kg/injection, schedule: Q01DX001 (ip), vehicle: saline
[6] = dose: 100.0 mg/kg/injection, schedule: Q01DX001 (ip), vehicle: carboxymethylcellulose (CMC)
[7] = dose: 200.0 mg/kg/injection, schedule: Q01DX001 (ip), vehicle: carboxymethylcellulose (CMC)
[8] = dose: 100.0 mg/kg/injection, schedule: Q04DX003 (ip), vehicle: saline with Tween-80
[9] = dose: 200.0 mg/kg/injection, schedule: Q04DX003 (ip), vehicle: saline with Tween-80
[10] = dose: 400.0 mg/kg/injection, schedule: Q04DX003 (ip), vehicle: saline with Tween-80

Measured: T/C

O=Cc1ccc(-c2ccc([N+](=O)[O-])cc2)o1
inactive: dose: 100.0 mg/kg/injection, schedule: Q01DX001 (ip), vehicle: saline with Tween-80 92 % of control | dose: 200.0 mg/kg/injection, schedule: Q01DX001 (ip), vehicle: saline with Tween-80 94 % of control | dose: 400.0 mg/kg/injection, schedule: Q01DX001 (ip), vehicle: saline with Tween-80 103 % of control

CC(C)CCS(=O)c1ccccc1 (centres undefined)
inactive: dose: 75.0 mg/kg/injection, schedule: Q01DX001 (ip), vehicle: acetone 91 % of control | dose: 75.0 mg/kg/injection, schedule: Q04DX003 (ip), vehicle: acetone 100 % of control | dose: 150.0 mg/kg/injection, schedule: Q01DX001 (ip), vehicle: acetone 100 % of control | dose: 150.0 mg/kg/injection, schedule: Q04DX003 (ip), vehicle: acetone 97 % of control | dose: 300.0 mg/kg/injection, schedule: Q01DX001 (ip), vehicle: acetone 98 % of control | dose: 300.0 mg/kg/injection, schedule: Q04DX003 (ip), vehicle: acetone 89 % of control

C=C1CC(c2ccc(S(=O)(=O)N3CCOCC3)cc2)OC1=O (centres undefined)
inactive: dose: 1.56 mg/kg/injection, schedule: Q01DX009 (ip), vehicle: Klucel (hydroxypropylcellulose) (HPC) 94 % of control | dose: 3.12 mg/kg/injection, schedule: Q01DX009 (ip), vehicle: Klucel (hydroxypropylcellulose) (HPC) 106 % of control | dose: 6.25 mg/kg/injection, schedule: Q01DX009 (ip), vehicle: Klucel (hydroxypropylcellulose) (HPC) 106 % of control | dose: 12.5 mg/kg/injection, schedule: Q01DX009 (ip), vehicle: Klucel (hydroxypropylcellulose) (HPC) 105 % of control | dose: 25.0 mg/kg/injection, schedule: Q01DX009 (ip), vehicle: Klucel (hydroxypropylcellulose) (HPC) 93 % of control | [1] 95 % of control | [2] 113 % of control

CCCC/C(I)=C\S(=O)(=O)c1ccc(C)cc1
inactive: [3] 113 % of control | [4] 86 % of control | [5] 96 % of control

C[N+](C)(CC(=O)Nc1cc(C(F)(F)F)cc(C(F)(F)F)c1)CC(=O)Nc1ccc(Cl)c(C(F)(F)F)c1
inactive: dose: 6.25 mg/kg/injection, schedule: Q04DX002 (ip), vehicle: saline with Tween-80 93 % of control | dose: 12.5 mg/kg/injection, schedule: Q04DX002 (ip), vehicle: saline with Tween-80 93 % of control | dose: 25.0 mg/kg/injection, schedule: Q04DX002 (ip), vehicle: saline with Tween-80 100 % of control and 91 % of control

CCC(SC#N)C(CC)SC#N (centres undefined)
inactive: dose: 12.5 mg/kg/injection, schedule: Q04DX002 (ip), vehicle: Klucel (hydroxypropylcellulose) (HPC) 103 % of control | dose: 25.0 mg/kg/injection, schedule: Q04DX002 (ip), vehicle: Klucel (hydroxypropylcellulose) (HPC) 93 % of control | dose: 50.0 mg/kg/injection, schedule: Q04DX002 (ip), vehicle: Klucel (hydroxypropylcellulose) (HPC) 90 % of control

CN(C)Cc1ccccc1CO
inactive: dose: 75.0 mg/kg/injection, schedule: Q04DX002 (ip), vehicle: Klucel (hydroxypropylcellulose) (HPC) 101 % of control | dose: 150.0 mg/kg/injection, schedule: Q04DX002 (ip), vehicle: Klucel (hydroxypropylcellulose) (HPC) 90 % of control | dose: 300.0 mg/kg/injection, schedule: Q04DX002 (ip), vehicle: Klucel (hydroxypropylcellulose) (HPC) 97 % of control

CCCCCCC(=O)N(CCC)CCC
inactive: [6] 112 % of control | dose: 100.0 mg/kg/injection, schedule: Q01DX009 (ip), vehicle: carboxymethylcellulose (CMC) 98 % of control and 100 % of control | dose: 100.0 mg/kg/injection, schedule: Q04DX003 (ip), vehicle: carboxymethylcellulose (CMC) 97 % of control | [7] 102 % of control | dose: 200.0 mg/kg/injection, schedule: Q01DX009 (ip), vehicle: carboxymethylcellulose (CMC) 97 % of control and 104 % of control | dose: 200.0 mg/kg/injection, schedule: Q04DX003 (ip), vehicle: carboxymethylcellulose (CMC) 98 % of control

O=S(=O)(C#Cc1ccccc1)c1ccccc1
inactive: [1] 89 % of control

CC(O)c1cccnc1 (centres undefined)
inactive: dose: 10.0 mg/kg/injection, schedule: Q01DX009 (ip), vehicle: saline 99 % of control | dose: 10.0 mg/kg/injection, schedule: Q04DX003 (ip), vehicle: saline 97 % of control | dose: 20.0 mg/kg/injection, schedule: Q01DX009 (ip), vehicle: saline 99 % of control | dose: 20.0 mg/kg/injection, schedule: Q04DX003 (ip), vehicle: saline 105 % of control | dose: 40.0 mg/kg/injection, schedule: Q01DX009 (ip), vehicle: saline 97 % of control | dose: 40.0 mg/kg/injection, schedule: Q04DX003 (ip), vehicle: saline 100 % of control

C/C(CSc1ncnc2nc[nH]c12)=N\NC(N)=S
inactive: dose: 50.0 mg/kg/injection, schedule: Q04DX003 (ip), vehicle: saline with Tween-80 101 % of control | [8] 95 % of control and 102 % of control | [9] 93 % of control | [10] 104 % of control

O=S(c1ccc(O)cc1)c1ccc(O)cc1
inactive: [8] 99 % of control | [9] 94 % of control | [10] 101 % of control

CN1Cc2ccccc2-c2ccccc2C1
inactive: dose: 75.0 mg/kg/injection, schedule: Q01DX001 (ip), vehicle: saline 101 % of control

CN(Cc1cccc(Cl)c1)C(=O)Nc1ccccc1Cl
inactive: [1] 104 % of control | [2] 104 % of control | dose: 400.0 mg/kg/injection, schedule: Q04DX002 (ip), vehicle: Klucel (hydroxypropylcellulose) (HPC) 104 % of control

BrCCCCBr
inactive: [3] 103 % of control | [4] 100 % of control | [5] 103 % of control

C=C(Br)CN(C)C(C)=O
inactive: dose: 6.25 mg/kg/injection, schedule: Q01DX009 (ip), vehicle: saline 98 % of control | dose: 6.25 mg/kg/injection, schedule: Q04DX003 (ip), vehicle: saline 101 % of control | dose: 12.5 mg/kg/injection, schedule: Q01DX009 (ip), vehicle: saline 98 % of control | dose: 12.5 mg/kg/injection, schedule: Q04DX003 (ip), vehicle: saline 106 % of control | dose: 25.0 mg/kg/injection, schedule: Q01DX009 (ip), vehicle: saline 93 % of control | dose: 25.0 mg/kg/injection, schedule: Q04DX003 (ip), vehicle: saline 98 % of control

CN1CCC(CO)CC1
inactive: [3] 94 % of control | [4] 100 % of control

FC(F)(F)C1=N/C(=C2\N=C(C(F)(F)F)N=C2Cl)C(Cl)=N1
inactive: dose: 25.0 mg/kg/injection, schedule: Q01DX009 (ip), vehicle: saline with Tween-80 94 % of control | dose: 50.0 mg/kg/injection, schedule: Q01DX009 (ip), vehicle: saline with Tween-80 96 % of control

O=C1c2ccccc2C(=O)N1CNCCCNCN1C(=O)c2ccccc2C1=O
inactive: [8] 93 % of control | [9] 95 % of control | [10] 96 % of control

CCN(CC)CCNc1ccc(CO)c2oc3ccccc3c(=O)c12
inactive: dose: 50.0 mg/kg/injection, schedule: Q01DX009 (ip), vehicle: saline 99 % of control | dose: 100.0 mg/kg/injection, schedule: Q01DX009 (ip), vehicle: saline 96 % of control | dose: 200.0 mg/kg/injection, schedule: Q01DX009 (ip), vehicle: saline 99 % of control

O=C1OC2(CCN(Cc3ccccc3)CC2)C(=O)N1c1cccc(Cl)c1
inactive: [6] 92 % of control | [7] 106 % of control | dose: 400.0 mg/kg/injection, schedule: Q01DX001 (ip), vehicle: carboxymethylcellulose (CMC) 97 % of control
